Results reported in ChEMBL document CHEMBL1136494, “Potent anti-metastatic activity of dimeric sesquiterpene thioalkaloids from the rhizome of Nuphar pumilum” (2003).

Tests used:
Type in all cases: functional
Settings in all cases: Mus musculus
B16 [1] = assay: Inhibition of lung metastasis of B16 melanoma cells in mice after 20 mg/kg po administration of the compound
B16 [2] = assay: Inhibition of invasion of B16 melanoma cells by 10 uM concentration of the compound
B16 [3] = assay: Inhibition of invasion of B16 melanoma cells by 0.1 uM concentration of the compound
B16 [4] = assay: Inhibition of invasion of B16 melanoma cells by 1 uM concentration of the compound
B16 [5] = assay: Inhibition of invasion of B16 melanoma cells by 100 uM concentration of the compound
B16 [6] = assay: Inhibition of invasion of B16 melanoma cells by 0.01 uM concentration of the compound

Row | SMILES | inhibition in vivo at 20 mg/kg (B16 [1]) [%] | inhibition at 10 µM (B16 [2]) [%] | inhibition at 0.1 µM (B16 [3]) [%] | inhibition at 1 µM (B16 [4]) [%] | inhibition at 100 µM (B16 [5]) [%] | inhibition at 0.01 µM (B16 [6]) [%]
1 | COc1cc(C=CC(=O)CC(=O)/C=C/c2ccc(O)c(OC)c2)ccc1O [CURCUMIN] | 87 |  |  |  |  | 
2 | C[C@@H]1CC[C@@H](c2ccoc2)N2C[C@@]3(CC[C@@H]12)CS[C@@]1(CC[C@H]2[C@H](C)CC[C@@H](c4ccoc4)N2C1)C3 [THIOBINUPHARIDINE] |  | 15.6 | 5.2 | 9.7 | 22.7 | 
3 | C[C@H]1CC[C@H]2[C@H](C)CC[C@@H](c3ccoc3)[N@@+]2([O-])C1 |  | 41.4 | 19.6 | 34.7 | 47.2 | 
4 | C[C@@H]1CC[C@@H](c2ccoc2)N2C[C@@]3(CC[C@@H]12)CS[C@]1(CC[C@H]2[C@H](C)CC[C@@H](c4ccoc4)N2[C@@H]1O)C3 [6-HYDROXYTHIONUPHLUTINE B] |  | 61.4 | 31.6 | 62.7 | 47.1 | 5.9
5 | C[C@@H]1CC[C@@H](c2ccoc2)N2C[C@]3(CC[C@@H]12)CS[C@]1(CC[C@H]2[C@H](C)CC[C@@H](c4ccoc4)N2C1)C3 [NEOTHIOBINUPHARIDINE] |  | 33.2 | 11.9 | 18.9 | 28.3 | 
6 | C[C@@H]1CC[C@@H](c2ccoc2)N2C[C@](C)(O)CC[C@@H]12 [NUPHAROLUTINE] |  | 16.8 | 25.5 | 1.7 | -0.6 | 
7 | C[C@@H]1CC[C@H]2[C@H](C)CC[C@@H](c3ccoc3)N2C1 [(-)-7-EPI-DEOXYNUPHARIDINE] |  | 20.9 | 5.1 | 25.3 | 23 | 
8 | C[C@H]1CC[C@H]2[C@H](C)CC[C@@H](c3ccoc3)N2C1 |  | 28.5 | -5.1 | 14 | 19.1 | 
9 | C[C@@H]1CC[C@@H](c2ccoc2)N2[C@H]1CC[C@@]1(CS[C@@]3(CC[C@H]4[C@H](C)CC[C@@H](c5ccoc5)N4[C@@H]3O)C1)[C@H]2O |  | 83.2 | 43.1 | 68.5 | 86.6 | 40.3
10 | C[C@@H]1CC[C@@H](c2ccoc2)N2C[C@]3(CC[C@@H]12)C[S+]([O-])[C@]1(CC[C@H]2[C@H](C)CC[C@@H](c4ccoc4)N2C1)C3 (stereo partly drawn) |  | 12.8 | 10.6 | 18.5 | 15.7 | 
11 | C[C@@H]1CC[C@@H](c2ccoc2)N2C[C@@]3(CC[C@@H]12)C[S+]([O-])[C@]1(CC[C@H]2[C@H](C)CC[C@@H](c4ccoc4)N2C1)C3 (stereo partly drawn) |  | 9.2 | -8.1 | 10.2 | 0 | 
12 | C[C@@H]1CC[C@@H](c2ccoc2)N2C[C@@]3(CC[C@@H]12)C[S+]([O-])[C@@]1(CC[C@H]2[C@H](C)CC[C@@H](c4ccoc4)N2C1)C3 (stereo partly drawn) |  | 42.2 | 16.9 | 38.3 | 32.5 | 
13 | C[C@@H]1CC[C@@H](c2ccoc2)N2C[C@@]3(CC[C@@H]12)CS[C@@]1(CC[C@H]2[C@H](C)CC[C@@H](c4ccoc4)N2[C@@H]1O)C3 | 94 | 84.8 | 57.5 | 66.5 | 86.8 | 50.9
